According to PMC9458095, “In Vitro Evaluation of In Silico Screening Approaches in Search for Selective ACE2 Binding Chemical Probes” (Molecules, 2022):
Where two headings read alike, the source gives them in different places.

Experiments:
human ACE2 (CHEMBL3736) = conditions: ChEMBL 26, cited from earlier work
ACE2 [1] = molecular target: T1, ACE2 (Homo sapiens, UniProt Q9BYF1); test: ACE2 inhibitor screening kit (Abcam ab273373), fluorescence enzymatic assay, MCA-based peptide substrate; format: biochemical; conditions: for inhibition at 20 µM: 20 µM final concentration, n = 1, 25 µL, read-out: Inhibition% (primary screen hits)
T1 construct: purchased Abcam ab273373
Description: Despite the commercial availability of ACE2 Inhibitor Screening Kits the optimal HTS protocols are still not published and their validation is still needed. Among available kits the Abcam, ab273373 was used. This assay is based on the ability of active angiotensin-converting enzyme (ACE2) to cleave a synthetic MCA-based peptide substrate (the structure not disclosed by the manufacturer) and release a free fluorophore. The released fluorophore can be easily quantified using a standard fluorescence microplate reader. During this screening campaign, the next milestones were estimated: (i) optimization of the test compounds solutions used volume (without loss of performance and analytical signal recognition); (ii) optimization of reaction volume and concentrations of the reagents; (iii) determination of IC50 for known inhibitor MLN-4760 (EN300-22203532) and reference inhibitor from the kit (the structure not disclosed by manufacturer) in new validated conditions; (iv) primary screening of 577 selected compounds; (v) hit confirmation; (vi) dose-response curve (DRC) of confirmed hits.
The commercial Abcam (ab273373) Angiotensin II Converting Enzyme (ACE2) Inhibitor Screening Kit and 384-well 3544 Corning low volume, black clear bottom plates were used. The reagent preparation was performed in accord with kit instruction. In order to prepare the required enzyme concentration, we dissolved […] of stock enzyme solution (concentration in stock and MW not disclosed) in 198 µL of ACE2 Dilution Buffer (provided by the Manufacturer), then aliquoted the entire volume into 25 µL and frozen at −70 °C. A substrate solution calculated for one assay well contained 0.5 µL of stock Substrate solution and 9.5 µL of ACE2 Assay Buffer, stored at −70 °C. Reference inhibitor from the kit (five µL in stock, structure, and MW not disclosed) was not aliquoted, 50 µL of ACE Assay Buffer should be added directly before the experiment.
Primary screen assay conditions. Volume: 25 µL; Concentrations: enzyme and substrate solutions prepared according to the instructions and further diluted both to 1:2 in the Assay mixture. Assay buffer: provided by the Manufacturer (composition not disclosed, see SI for reference). Compounds: 20 µM final concentrations in the Assay mixture, n = 1. Reference Inhibitors: (1) Ref. inhibitor provided by the Manufacturer, 300 nM, (n = 4); (2) Compound from Enamine library EN300-22203532, 2.5 nM, (n = 4). Temperature: 25 °C. The enzyme solution was added into corresponding plate wells (columns 1–22), and buffer was added into wells corresponding to negative (Enzyme) control (columns 23, 24). Plates were incubated for 15 min at 25 °C. Then Substrate solution was added to all experimental wells. Plates were centrifuged and measurement started in kinetic mode (Exc/Em 320/420 nm). Results processing: two time points were chosen from kinetic curves for all wells and corresponding RFU values were obtained. ΔRFU/Δt were calculated for each curve and % of inhibition values were calculated from the equation: 100%—ΔRFU of sample/ΔRFU of Enzyme control*100%, according to the recommendation of the Manufacturer.
DRC and IC50 calculations. Concentrations: enzyme and substrate solutions were diluted both to 1:2 in the Assay mixture. Assay buffer: provided by the Manufacturer (composition not disclosed). Temperature: 25 °C. Compounds: 2-fold titrated from 100 µM, n = 4. Reference Inhibitors: (1) Ref. inhibitor Abcam 2-fold titrated from 1.5 µM, (n = 4); (2) Ref. inhibitor EN300-22203532, 2-fold titrated from 20 nM, (n = 4). Compounds were incubated with enzyme for 15 min. Plates were measured in kinetic mode (Exc/Em 320/420 nm). […]

ACE2 [2] = molecular target: T1, ACE2; test: as above; format: biochemical; conditions: DRC measured three times each, 3-fold titration, 25 µL, enzyme and substrate 1:2; read-out: IC50 of reference inhibitors in optimized conditions
[3] = dose-response of confirmed hits, as in Figure 10, read-out: IC50(ACE2)
[4] = dose-response, 2-fold titrated, n = 4, 15 min incubation with enzyme, 25 °C, enzyme and substrate 1:2, read-out: IC50 (DRC, Figure 9)

T1 sequence (Q9BYF1 18-805): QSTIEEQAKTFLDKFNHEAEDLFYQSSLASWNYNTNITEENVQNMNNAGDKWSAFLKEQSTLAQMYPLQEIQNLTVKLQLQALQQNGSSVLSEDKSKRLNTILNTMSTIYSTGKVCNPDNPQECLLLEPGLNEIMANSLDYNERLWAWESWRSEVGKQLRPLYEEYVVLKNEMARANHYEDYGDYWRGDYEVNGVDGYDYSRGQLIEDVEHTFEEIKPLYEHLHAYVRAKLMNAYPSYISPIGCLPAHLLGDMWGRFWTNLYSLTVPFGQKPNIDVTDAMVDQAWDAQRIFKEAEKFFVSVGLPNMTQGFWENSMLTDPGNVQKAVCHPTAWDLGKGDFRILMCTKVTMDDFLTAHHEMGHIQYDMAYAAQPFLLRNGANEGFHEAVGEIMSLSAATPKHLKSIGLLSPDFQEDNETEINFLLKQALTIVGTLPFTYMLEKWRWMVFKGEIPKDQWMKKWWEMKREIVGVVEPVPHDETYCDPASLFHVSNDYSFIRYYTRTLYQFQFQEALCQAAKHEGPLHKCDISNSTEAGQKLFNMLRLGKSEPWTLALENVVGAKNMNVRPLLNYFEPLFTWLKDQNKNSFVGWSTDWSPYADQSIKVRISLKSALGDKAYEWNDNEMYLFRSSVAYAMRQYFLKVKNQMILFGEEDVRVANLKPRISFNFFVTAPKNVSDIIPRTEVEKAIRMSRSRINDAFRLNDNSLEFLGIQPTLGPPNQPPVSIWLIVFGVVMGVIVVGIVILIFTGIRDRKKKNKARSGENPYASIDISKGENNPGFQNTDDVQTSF

| Structure (SMILES) | inhibition at 20 µM (ACE2 [1]; enzyme and substrate 1:2) [%] | IC50 (ACE2 [1]; [3]) [µM] | IC50 (ACE2 [1]; [4]) [µM] | further results |
| --- | --- | --- | --- | --- |
| CC[C@@H](C)[C@H](S)C(=O)N[C@@H](Cc1ccc(OCc2ccc(F)c(F)c2)cc1)C(=O)O [CHEMBL251808, CC[C@@H](C)[C@H](S)C(=O)N[C@@H](Cc1ccc(OCc2ccc(F)c(F)c2)cc1)C(O)=O] |  |  |  | Ki (human ACE2 (CHEMBL3736); known selective ACE2 inhibitors): 0.00085 µM |
| CC(NC(=O)CCCCC(=O)O)c1ccc(-c2ccc(N(C)C)cc2)cc1 (centres unmarked) [Compound 1] | 38.8 | 45.8 |  |  |
| Cc1ccc2nc(-c3ccc(NC(=O)CCC(=O)O)cc3)sc2c1 [Compound 2, Cc1ccc2nc(sc2c1)-c1ccc(NC(=O)CCC([O-])=O)cc1] | 74.1 |  | 110 |  |
| O=C(O)CC(NC(=O)c1ccc(-c2ccc(F)cc2)o1)c1ccc(F)cc1 (centres unmarked) [Compound 3] | 28.9 | 46.4 |  |  |

Now from value to molecule, other results behind:

| inhibition at 20 µM (ACE2 [1]; enzyme and substrate 1:2) [%] | IC50 (ACE2 [1]; [3]) [µM] | IC50 (ACE2 [1]; [4]) [µM] | Structure (SMILES) | further results |
| --- | --- | --- | --- | --- |
| 54 | 16.8 |  | Cc1ccc(CCC2CCN(C(=O)CN3CCCC3C(=O)O)CC2)cc1 (centres unmarked) [Compound 4] |  |
| 29.8 | 53.6 |  | O=C(O)CSc1ccc(C(=O)/C=C/c2cnn(-c3ccccc3)c2)cc1F [Compound 5, OC(=O)CSc1ccc(cc1F)C(=O)C=Cc1cnn(c1)-c1ccccc1] |  |
| 50.1 |  | 67.3 | CCC(C(=O)O)[S+]([O-])Cc1csc(-c2ccc3c(c2)OCO3)n1 (centres unmarked) [Compound 6] |  |
| 52.1 | 269 |  | O=C(NC1CN(c2ccccc2)C1=O)c1ncccc1O (centres unmarked) [Compound 7] |  |
|  |  | 0.2 | CC(C)C[C@H](N[C@@H](Cc1cncn1Cc1cc(Cl)cc(Cl)c1)C(=O)O)C(=O)O [MLN-4760, reference compound] | %inh_Ref EN300-22203532, Plate 1 (ACE2 [1]; primary screen QC, 2.5 nM, n = 4, plate 1): 69.9%; %inh_Ref EN300-22203532, Plate 2 (ACE2 [1]; primary screen QC, 2.5 nM, n = 4, plate 2): 72.2%; IC50 (ACE2 [2]): 0.0009 to 0.0025 µM; IC50 (human ACE2 (CHEMBL3736); known selective ACE2 inhibitor): 0.00044 µM |
